Columns and labels:
Experiment in all cases: area under the viability dose-response curve (AUC) (AUC (arbitrary units, max 500 = no viability loss)); higher = less sensitive (higher viability)
Conditions in all cases: exposure time: 120 h; concentration range: 0.1 nM - 10 µM, 6 doses
3E = test system: 3E (embryonal-type hepatoblastoma organoid)
Protocol: (§1)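 Patient-derived hepatoblastoma tumor organoids (about 50 organoids per well, 384-well plates, medium with 5% BME) were treated with the PMC pediatric cancer drug library. Each drug was tested in duplicate at 6 concentrations (0.1 nM to 10 µM, 10-fold steps).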

10F2 = test system: 10F2 (fetal-II hepatoblastoma organoid with high liver markers)
Protocol: as §1

22E = test system: 22E (embryonal-type hepatoblastoma organoid)
Protocol: as §1

135F2 = test system: 135F2 (fetal-II hepatoblastoma organoid with high liver markers)
Protocol: as §1

17E = test system: 17E (embryonal-type hepatoblastoma organoid)
Protocol: as §1

8F1 = test system: 8F1 (fetal-I hepatoblastoma organoid with intermediate liver markers)
Protocol: as §1

17F1 = test system: 17F1 (fetal-I hepatoblastoma organoid with intermediate liver markers)
Protocol: as §1

27F1 = test system: 27F1 (fetal-I hepatoblastoma organoid with intermediate liver markers)
Protocol: as §1

13E = test system: 13E (embryonal-type hepatoblastoma organoid)
Protocol: as §1

96F1 = test system: 96F1 (fetal-I hepatoblastoma organoid with intermediate liver markers)
Protocol: as §1

13F2 = test system: 13F2 (fetal-II hepatoblastoma organoid with high liver markers)
Protocol: as §1

Row | Structure (SMILES) | area under the viability dose-response curve (3E) | area under the viability dose-response curve (10F2) | area under the viability dose-response curve (22E) | area under the viability dose-response curve (135F2) | area under the viability dose-response curve (17E) | area under the viability dose-response curve (8F1) | area under the viability dose-response curve (17F1) | area under the viability dose-response curve (27F1) | area under the viability dose-response curve (13E) | area under the viability dose-response curve (96F1) | area under the viability dose-response curve (13F2)
1 | Cc1ccc(C(=O)Nc2ccc(Oc3cc4cnn(C)c4cc3-c3cn[nH]c3)c(F)c2)c(=O)n1-c1ccc(F)cc1 [Merestinib] | 452 | 432 | 464 | 487 | 486 | 484 | > 500 | > 500 | 463 | > 500 | 466
2 | CN(Cc1cnc2nc(N)nc(N)c2n1)c1ccc(C(=O)N[C@@H](CCC(=O)O)C(=O)O)cc1 [Methotrexate] | 483 | 429 | 452 | 294 | 451 | 382 | 334 | 366 | 381 | 345 | 274
3 | CO[C@@H]1[C@H](N(C)C(=O)c2ccccc2)C[C@H]2O[C@]1(C)n1c3ccccc3c3c4c(c5c6ccccc6n2c5c31)C(=O)NC4 [Midostaurin] | 338 | 372 | 417 | 365 | 364 | 454 | 442 | > 500 | 427 | 431 | 335
4 | CC1(C)CCC2(CC1)N[C@@H](C(=O)N[C@@H]1CC[C@@H](C(N)=O)OC1)[C@H](c1ccnc(Cl)c1F)[C@]21C(=O)Nc2cc(Cl)ccc21 [Milademetan] | 313 | 268 | 406 | 341 | 294 | 367 | 376 | 357 | 370 | 399 | 256
5 | Nc1ncccc1-c1nc2ccc(-c3ccccc3)nc2n1-c1ccc(C2(N)CCC2)cc1 [Miransertib] | 338 | 446 | 387 | 429 | 365 | 428 | 494 | 447 | 421 | 433 | 422
6 | CCNC(=O)C[C@@H]1N=C(c2ccc(Cl)cc2)c2cc(OC)ccc2-n2c(C)nnc21 [Molibresib] | 378 | 386 | 442 | 417 | 400 | 465 | 477 | 498 | 468 | 497 | 389
7 | N#CCNC(=O)c1ccc(-c2ccnc(Nc3ccc(N4CCOCC4)cc3)n2)cc1 [Momelotinib] | 462 | 442 | 489 | 462 | 444 | 479 | 489 | 496 | 471 | 465 | 443
8 | FC(F)(F)c1ccc(/C=C/c2nc(COc3ccc(CCCCn4ccnn4)cc3)co2)cc1 [Mubritinib] | 429 | 438 | 449 | 334 | 419 | 263 | 245 | 335 | 339 | 269 | 264
9 | CC1(C)CCC(c2ccc(Cl)cc2)=C(CN2CCN(c3ccc(C(=O)NS(=O)(=O)c4ccc(N[C@H](CCN5CCOCC5)CSc5ccccc5)c(S(=O)(=O)C(F)(F)F)c4)cc3)CC2)C1 [Navitoclax] | 326 | 335 | 423 | 425 | 423 | 321 | 433 | 421 | 414 | 423 | 409
10 | COc1ccc([C@@H](O)c2cc(-c3ncnc4cc(N5CCOCC5)ccc34)c(F)cc2Cl)nn1 [Nedisertib] | 435 | 404 | 462 | 463 | 409 | 479 | 486 | 493 | 453 | 462 | 394
11 | CCOc1cc2ncc(C#N)c(Nc3ccc(OCc4ccccn4)c(Cl)c3)c2cc1NC(=O)/C=C/CN(C)C [Neratinib] | 444 | 234 | 453 | 462 | 424 | 449 | 431 | 362 | 464 | 416 | 319
12 | Cc1cn(-c2cc(NC(=O)c3ccc(C)c(Nc4nccc(-c5cccnc5)n4)c3)cc(C(F)(F)F)c2)cn1 [Nilotinib] | 489 | > 500 | 478 | 476 | 456 | 486 | 496 | > 500 | 493 | 495 | 471
13 | O=C(c1cc(Cc2n[nH]c(=O)c3ccccc23)ccc1F)N1CCN(C(=O)C2CC2)CC1 [Olaparib] | 477 | 470 | 458 | 492 | 494 | > 500 | > 500 | 476 | 496 | 490 | 491
14 | C=CC(=O)Nc1cc(Nc2nccc(-c3cn(C)c4ccccc34)n2)c(OC)cc1N(C)CCN(C)C [Osimertinib] | 378 | 335 | 423 | 442 | 448 | 490 | 468 | 380 | 424 | 449 | 364
15 | CC(=O)O[C@H]1C(=O)[C@@]2(C)[C@H]([C@H](OC(=O)c3ccccc3)[C@]3(O)C[C@H](OC(=O)[C@H](O)[C@@H](NC(=O)c4ccccc4)c4ccccc4)C(C)=C1C3(C)C)[C@]1(OC(C)=O)CO[C@@H]1C[C@@H]2O [Paclitaxel] | 145 | 179 | 229 | 211 | 174 | 312 | 222 | 250 | 196 | 179 | 215
16 | CC(=O)c1c(C)c2cnc(Nc3ccc(N4CCNCC4)cn3)nc2n(C2CCCC2)c1=O [Palbociclib] | 382 | 398 | 460 | 431 | 373 | 499 | > 500 | 470 | 467 | 460 | 337
17 | C[C@]12CCCN1CC1=NNC(=O)c3cc(F)cc4[nH]c2c1c34 [Pamiparib] | 459 | 439 | 473 | 478 | > 500 | 479 | > 500 | 487 | 481 | 494 | 443

Row | Structure (SMILES) | area under the viability dose-response curve (3E) | area under the viability dose-response curve (10F2) | area under the viability dose-response curve (22E) | area under the viability dose-response curve (135F2) | area under the viability dose-response curve (17E) | area under the viability dose-response curve (8F1) | area under the viability dose-response curve (17F1) | area under the viability dose-response curve (27F1) | area under the viability dose-response curve (13E) | area under the viability dose-response curve (96F1) | area under the viability dose-response curve (13F2)
18 | Cc1[nH]c2ccccc2c1CCNCc1ccc(/C=C/C(=O)NO)cc1 [Panobinostat] | 210 | 166 | 319 | 248 | 218 | 325 | 271 | 296 | 294 | 290 | 220
19 | NS(=O)(=O)OC[C@@H]1C[C@@H](n2ccc3c(N[C@H]4CCc5ccccc54)ncnc32)C[C@@H]1O [Pevonedistat] | 448 | 425 | 470 | 342 | 383 | 445 | 400 | 333 | 451 | 381 | 329
20 | CS(=O)(=O)N1CCN(Cc2cc3nc(-c4cccc5[nH]ncc45)nc(N4CCOCC4)c3s2)CC1 [Pictilisib] | 380 | 391 | 404 | 411 | 350 | 482 | 493 | 376 | 413 | 422 | 365
21 | CC(C)N(C[C@H]1O[C@@H](n2cnc3c(N)ncnc32)[C@H](O)[C@@H]1O)[C@H]1C[C@@H](CCc2nc3cc(C(C)(C)C)ccc3[nH]2)C1 [Pinometostat] | > 500 | 432 | > 500 | 489 | 453 | 497 | 472 | 490 | 493 | 469 | 486
22 | C[C@]12C=CC(=O)C=C1CC[C@@H]1[C@@H]2[C@@H](O)C[C@@]2(C)[C@H]1CC[C@]2(O)C(=O)CO [Prednisolone] | 472 | 475 | 487 | 475 | 467 | 472 | 493 | 489 | 494 | 479 | > 500
23 | COc1cccc(OCCCN)c1-c1cc(Nc2cnc(C#N)cn2)n[nH]1 [Prexasertib] | 172 | 293 | 345 | 324 | 274 | 334 | 371 | 264 | 313 | 320 | 345
24 | CC(C)(C)c1cc(NC(=O)Nc2ccc(-c3cn4c(n3)sc3cc(OCCN5CCOCC5)ccc34)cc2)no1 [Quizartinib] | > 500 | 474 | 484 | 489 | 432 | 494 | 471 | > 500 | > 500 | 489 | 485
25 | Cn1nccc1Nc1nccc(-c2ccn([C@H](CO)c3ccc(Cl)c(F)c3)c(=O)c2)n1 [Ravoxertinib] | 494 | 331 | 468 | 380 | 475 | > 500 | > 500 | > 500 | 470 | 483 | 354
26 | CNCc1ccc(-c2[nH]c3cc(F)cc4c3c2CCNC4=O)cc1 [Rucaparib] | 490 | 446 | 475 | 452 | 489 | 476 | 489 | > 500 | 484 | > 500 | 458
27 | N#CC[C@H](C1CCCC1)n1cc(-c2ncnc3[nH]ccc23)cn1 [Ruxolitinib] | 462 | 492 | 440 | 491 | 487 | > 500 | 478 | > 500 | > 500 | 490 | 487
28 | C[C@@H]1COCCN1c1cc(=O)n2c(n1)N(Cc1cncc(Cl)c1)[C@H](C(F)(F)F)CC2 [SAR405] | 479 | > 500 | 474 | 490 | 496 | 489 | > 500 | 454 | 497 | > 500 | 467
29 | CCc1c2c(nc3ccc(O)cc13)-c1cc3c(c(=O)n1C2)COC(=O)[C@]3(O)CC [SN-38 (Irinotecan)] | 156 | 173 | 312 | 156 | 200 | 251 | 189 | 178 | 266 | 173 | 162
30 | CNC(=O)CN1CCC(Oc2cc3c(Nc4cccc(Cl)c4F)ncnc3cc2OC)CC1 [Sapitinib] | 431 | 235 | 492 | 458 | 491 | 439 | 464 | 338 | > 500 | 404 | 312
31 | CN1CCN(CCOc2cc(OC3CCOCC3)c3c(Nc4c(Cl)ccc5c4OCO5)ncnc3c2)CC1 [Saracatinib] | 492 | 422 | 477 | 478 | 455 | 475 | 493 | 381 | 464 | 466 | 415
32 | C[C@@H](c1ccc2nccn2c1)n1nnc2ncc(-c3cnn(C)c3)nc21 [Savolitinib] | 489 | 472 | > 500 | 497 | 499 | > 500 | 489 | > 500 | > 500 | > 500 | > 500
33 | COCC[n+]1c2c(n(Cc3cnccn3)c1C)C(=O)c1ccccc1C2=O [Sepantronium bromide] | 241 | 348 | 316 | 427 | 331 | 429 | 312 | 408 | 337 | 286 | 395
